Source: patent US4228292A, “N-Substituted benzothiazolines and benzoxazolines and their use as herbicides and plant growth regulants” (Monsanto Company, priority 1978, dated 1980)

Legend:
Panicum Spp = assay: post-emergent herbicidal test; format: in vivo; conditions: S; further: ranges in brackets are in %
Description: (§1) The post-emergent tests were conducted as follows:
(§2) The herbicidal active ingredients are applied in spray form to two or three-week old specimens of various plant species. The spray, a solution or wettable powder suspension containing the appropriate rate of herbicidal active ingredient to give the desired test rate and a surfactant, is applied to the plants. The treated plants are placed in a greenhouse and approximately two or four weeks later the effects are observed and recorded. The results are shown in Tables IX and X in which the post-emergent herbicidal rating code is as follows: […]

Sugar Beet = assay: post-emergent herbicidal test; format: in vivo; conditions: M; further: ranges in brackets are in %
Description: as §1, §2

Soybean = assay: post-emergent herbicidal test; format: in vivo; conditions: L; further: ranges in brackets are in %
Description: as §1, §2

Wild Buckwheat = assay: post-emergent herbicidal test; format: in vivo; conditions: Q; further: ranges in brackets are in %
Description: as §1, §2

Sorghum = assay: post-emergent herbicidal test; format: in vivo; conditions: P; further: ranges in brackets are in %
Description: as §1, §2

Wheat = assay: post-emergent herbicidal test; format: in vivo; conditions: N; further: ranges in brackets are in %
Description: as §1, §2

Rice = assay: post-emergent herbicidal test; format: in vivo; conditions: O; further: ranges in brackets are in %
Description: as §1, §2

Crabgrass = assay: post-emergent herbicidal test; format: in vivo; conditions: T; further: ranges in brackets are in %
Description: as §1, §2

Hemp Sesbania = assay: post-emergent herbicidal test; format: in vivo; conditions: R; further: ranges in brackets are in %
Description: as §1, §2

soybean plants = assay: plant growth regulating activity on soybean plants; format: in vivo, variety Williams; conditions: 2.8 kg/h
Description: A number of soybean plants, variety Williams, were grown from seeds in plastic pots in the greenhouse for a period of one week at which time the plants are thinned to one plant per pot. When the second trifoliate leaf (three weeks) was fully expanded, the plants were treated with a solution of the active ingredient in acetone and water. Aqueous Tween 20 was used as a surfactant.
When the fifth trifoliate leaf (four to five weeks) was fully expanded, the treated plants were compared with the non-treated control plants and the observations recorded.

SMILES: COC(=N)Cn1c(=O)sc2ccc(Cl)cc21 [Compound 27]
- post-emergent herbicidal rating (Panicum Spp; 0.28 kg/h, 2 WAT): 0 (0-24)
- post-emergent herbicidal rating (Panicum Spp; 1.12 kg/h, 4 WAT): 0 (0-24)
- post-emergent herbicidal rating (Panicum Spp; 5.6 kg/h, 4 WAT): 0 (0-24)
- post-emergent herbicidal rating (Sugar Beet; 0.28 kg/h, 2 WAT): 1 (25-49)
- post-emergent herbicidal rating (Sugar Beet; 1.12 kg/h, 4 WAT): 3 (75-99)
- post-emergent herbicidal rating (Sugar Beet; 5.6 kg/h, 4 WAT): 3 (75-99)
- post-emergent herbicidal rating (Soybean; 0.28 kg/h, 2 WAT): 1 (25-49)
- post-emergent herbicidal rating (Soybean; 1.12 kg/h, 4 WAT): 2 (50-74)
- post-emergent herbicidal rating (Soybean; 5.6 kg/h, 4 WAT): 3 (75-99)
- post-emergent herbicidal rating (Wild Buckwheat; 0.28 kg/h, 2 WAT): 0 (0-24)
- post-emergent herbicidal rating (Wild Buckwheat; 1.12 kg/h, 4 WAT): 3 (75-99)
- post-emergent herbicidal rating (Wild Buckwheat; 5.6 kg/h, 4 WAT): 4 (100)
- post-emergent herbicidal rating (Sorghum; 0.28 kg/h, 2 WAT): 0 (0-24)
- post-emergent herbicidal rating (Sorghum; 1.12 kg/h, 4 WAT): 0 (0-24)
- post-emergent herbicidal rating (Sorghum; 5.6 kg/h, 4 WAT): 0 (0-24)
- post-emergent herbicidal rating (Wheat; 0.28 kg/h, 2 WAT): 0 (0-24)
- post-emergent herbicidal rating (Wheat; 1.12 kg/h, 4 WAT): 0 (0-24)
- post-emergent herbicidal rating (Wheat; 5.6 kg/h, 4 WAT): 1 (25-49)
- post-emergent herbicidal rating (Rice; 0.28 kg/h, 2 WAT): 0 (0-24)
- post-emergent herbicidal rating (Rice; 1.12 kg/h, 4 WAT): 0 (0-24)
- post-emergent herbicidal rating (Rice; 5.6 kg/h, 4 WAT): 0 (0-24)
- post-emergent herbicidal rating (Crabgrass; 0.28 kg/h, 2 WAT): 0 (0-24)
- post-emergent herbicidal rating (Crabgrass; 1.12 kg/h, 4 WAT): 0 (0-24)
- post-emergent herbicidal rating (Crabgrass; 5.6 kg/h, 4 WAT): 0 (0-24)
- post-emergent herbicidal rating (Hemp Sesbania; 0.28 kg/h, 2 WAT): 0 (0-24)
- post-emergent herbicidal rating (Hemp Sesbania; 1.12 kg/h, 4 WAT): 2 (50-74)
- post-emergent herbicidal rating (Hemp Sesbania; 5.6 kg/h, 4 WAT): 4 (100)
- plant growth regulant observations (soybean plants): Plants died.
